Reference: patent publication US7919504B2, “Thiadiazole modulators of PKB” (Amgen Inc., priority 2007, dated 2011)
Counter-ions that a name gives are not always drawn.

These compounds were tested against T1, PKBα (Homo sapiens, UniProt P31749) (assay: PKB kinase assay (P33-labeled ATP, synthetic peptide substrate, filter plate capture)). Conditions: with respect to PKBα.
T1 construct: the full length PKBα and a kinase domain of PKBα with pleckstrin domain (amino acids 1-117) deleted
Assay type: biochemical
Source text: The kinase assay for evaluating PKB activity comprises active PKB enzymes, a PKB specific substrate, and P^33-labeled ATP. Two form of PKBα enzymes were used, the full length PKBα and a kinase domain of PKBα with pleckstrin domain (amino acids 1-117) deleted. Both PKB enzymes were obtained from Upstate cell signaling solutions (Cat. #14-276 and 14-341). The PKB substrate used is a synthetic peptide (ARKRERTYSFGHHA (SEQ ID NO: 1)) as described in Obata et al., J. Biol. Chem. 275 (46), 36108-36115 (2000). The phosphorylated substrate was captured by a phosphocellulose membrane filter plate (MILLIPORE) and measured by a Wallac Microbeta liquid scintillation counter (Perkin Elmer). Table 1 provides the IC50 values obtained for each of the examples with respect to PKBα.

T1 sequence (P31749 118-480 limits assumed): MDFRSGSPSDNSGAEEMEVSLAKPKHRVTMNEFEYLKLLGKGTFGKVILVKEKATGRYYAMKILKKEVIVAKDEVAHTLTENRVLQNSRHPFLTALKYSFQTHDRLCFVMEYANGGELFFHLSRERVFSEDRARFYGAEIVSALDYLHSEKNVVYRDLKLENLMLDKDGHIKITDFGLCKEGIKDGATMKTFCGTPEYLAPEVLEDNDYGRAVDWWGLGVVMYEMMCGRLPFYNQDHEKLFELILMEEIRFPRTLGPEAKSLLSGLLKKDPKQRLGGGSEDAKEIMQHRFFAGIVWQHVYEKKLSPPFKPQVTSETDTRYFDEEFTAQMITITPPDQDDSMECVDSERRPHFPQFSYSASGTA

SMILES	IC50 [nM]
c1ccc2[nH]c(CCNc3nnc(-c4ccc5cnccc5c4)s3)nc2c1 [Example 19, N-(2-(1H-Benzo[d]imidazol-2-yl)ethyl)-5-(isoquinolin-6-yl)-1,3,4-thiadiazol-2-amine]	1000 to 10000
CC1(C)C2CCC1(C)C(Nc1nnc(-c3ccc4cnccc4c3)s1)C2 (stereo not shown) [Example 20, 5-(Isoquinolin-6-yl)-N-(1,7,7-trimethylbicyclo[2.2.1]heptan-2-yl)-1,3,4-thiadiazol-2-amine]	1000 to 10000
O[C@H]1CCCC[C@H]1CNc1nnc(-c2ccc3cnccc3c2)s1 [Example 21, (1S,2S)-2-((5-(Isoquinolin-6-yl)-1,3,4-thiadiazol-2-ylamino)methyl)cyclohexanol]	50 to 1000
N[C@H](CNc1nnc(-c2ccc3ncncc3c2)s1)Cc1ccc(C(F)(F)F)cc1 [Example 25, N-((S)-2-Amino-3-(4-(trifluoromethyl)phenyl)propyl)-5-(quinazolin-6-yl)-1,3,4-thiadiazol-2-amine]	50 to 1000
FC(F)(F)c1ccc([C@@H]2CCN[C@@H]2CNc2nnc(-c3ccc4cnccc4c3)s2)cc1 [Example 27, 5-(Isoquinolin-6-yl)-N-(((2S,3S)-3-(4-(trifluoromethyl)phenyl)pyrrolidin-2-yl)methyl)-1,3,4-thiadiazol-2-amine]	1000 to 10000
N[C@H](C(=O)Nc1nnc(-c2ccc3cnccc3c2)s1)[C@@H](CO)c1ccc(C(F)(F)F)cc1 [Example 31, (2S,3S)-2-Amino-4-hydroxy-N-(5-(isoquinolin-6-yl)-1,3,4-thiadiazol-2-yl)-3-(4-(trifluoromethyl)phenyl)butanamide hydrochloride]	1000 to 10000
N[C@H](COc1nnc(-c2ccc3cnccc3c2)s1)Cc1ccc(C(F)(F)F)cc1 [Example 32, (2S)-1-(5-(isoquinolin-6-yl)-1,3,4-thiadiazol-2-yloxy)-3-(4-(trifluoromethyl)phenyl)propan-2-amine]	50 to 1000
N[C@H](CNc1nnc(-c2ccc3c(c2)CC(=O)N3)s1)Cc1ccc(Cl)cc1 [Example 34, 5-(5-((S)-2-Amino-3-(4-chlorophenyl)propylamino)-1,3,4-thiadiazol-2-yl)indolin-2-one]	< 50
N[C@H](CCc1nnc(-c2ccc3cnccc3c2)s1)Cc1ccc(C(F)(F)F)cc1 [Example 35, (2R)-4-(5-(Isoquinolin-6-yl)-1,3,4-thiadiazol-2-yl)-1-(4-(trifluoromethyl)phenyl)butan-2-amine]	< 50
N[C@H](CNc1nnc(-c2ccc3cnsc3c2)s1)Cc1ccc(C(F)(F)F)cc1 [Example 42, N-((S)-2-Amino-3-(4-(trifluoromethyl)phenyl)propyl)-5-(benzo[d]isothiazol-6-yl)-1,3,4-thiadiazol-2-amine]	< 50
N[C@H](CNc1nnc(-c2ccc3cnc(F)cc3c2)s1)Cc1ccc(C(F)(F)F)cc1 [Example 43, N-((S)-2-Amino-3-(4-(trifluoromethyl)phenyl)propyl)-5-(3-fluoroisoquinolin-6-yl)-1,3,4-thiadiazol-2-amine trifluoroacetate]	< 50
N[C@H](CNc1nnc(-c2ccc3cnc(F)cc3c2)s1)Cc1ccc(C(F)(F)F)nc1 [Example 44, N-((S)-2-Amino-3-(6-(trifluoromethyl)pyridin-3-yl)propyl)-5-(3-fluoroisoquinolin-6-yl)-1,3,4-thiadiazol-2-amine trifluoroacetate]	< 50
N[C@H](CCc1nnc(-c2ccc3cnc(F)cc3c2)s1)Cc1ccc(C(F)(F)F)nc1 [Example 45, (2R)-4-(5-(3-Fluoroisoquinolin-6-yl)-1,3,4-thiadiazol-2-yl)-1-(6-(trifluoromethyl)pyridin-3-yl)butan-2-amine]	< 50
N[C@H](CCc1nnc(-c2ccc3[nH]ncc3c2)s1)Cc1ccc(C(F)(F)F)nc1 [Example 46, (2R)-4-(5-(1H-Indazol-5-yl)-1,3,4-thiadiazol-2-yl)-1-(6-(trifluoromethyl)pyridin-3-yl)butan-2-amine]	< 50
N[C@H](CCc1nnc(-c2ccc3c(c2)CC(=O)N3)s1)Cc1ccc(C(F)(F)F)nc1 [Example 47, 5-(5-((R)-3-Amino-4-(6-(trifluoromethyl)pyridin-3-yl)butyl)-1,3,4-thiadiazol-2-yl)indolin-2-one trifluoroacetate]	50 to 1000
N[C@H](CCc1nnc(-c2ccc3cnc(F)cc3c2)s1)Cc1ccc(C(F)(F)F)cc1 [Example 48, (2R)-4-(5-(3-Fluoroisoquinolin-6-yl)-1,3,4-thiadiazol-2-yl)-1-(4-(trifluoromethyl)phenyl)butan-2-amine]	< 50
N[C@H](CCc1nnc(-c2ccc3[nH]c(=O)oc3c2)s1)Cc1ccc(C(F)(F)F)cc1 [Example 49, 6-(5-((R)-3-Amino-4-(4-(trifluoromethyl)phenyl)butyl)-1,3,4-thiadiazol-2-yl)benzo[d]oxazol-2(3H)-one]	< 50
N[C@H](CNc1nnc(-c2ccc3[nH]c(=O)oc3c2)s1)Cc1ccc(Cl)cc1 [Example 50, 6-(5-((S)-2-Amino-3-(4-chlorophenyl)propylamino)-1,3,4-thiadiazol-2-yl)benzo[d]oxazol-2(3H)-one]	< 50
N[C@H](CNc1nnc(-c2ccc3c(c2)CC(=O)N3)s1)[C@@H](O)c1ccc(C(F)(F)F)cc1 [Example 51, 5-(5-((2R,3S)-2-Amino-3-hydroxy-3-(4-(trifluoromethyl)phenyl)propylamino)-1,3,4-thiadiazol-2-yl)indolin-2-one trifluoroacetate]	< 50
